# Experimental data: patent publication US6436948B1, “Method for the treatment of psoriasis and genital warts” (priority 1995, dated 2002)
# Entries after “also recorded” stand apart in the source; their conditions may differ.
# Legend:
# SN12C = experiment: NCI cancer screening program, SRB: SN12C; type: cell-based; conditions: Renal Cancer, PG +50, 48 hours
# UO-31 = experiment: NCI cancer screening program, SRB: UO-31; type: cell-based; conditions: Renal Cancer, PG +50, 48 hours
# PC-3 = experiment: NCI cancer screening program, SRB: PC-3; type: cell-based; conditions: Prostate Cancer, PG +50, 48 hours
# DU-145 = experiment: NCI cancer screening program, SRB: DU-145; type: cell-based; conditions: Prostate Cancer, PG +50, 48 hours
# MCF7 = experiment: NCI cancer screening program, SRB: MCF7; type: cell-based; conditions: Breast Cancer, PG +50, 48 hours
# MCF7/ADR-RES = experiment: NCI cancer screening program, SRB: MCF7/ADR-RES; type: cell-based; conditions: Breast Cancer
# HS578T = experiment: NCI cancer screening program, SRB: HS578T; type: cell-based; conditions: Breast Cancer, PG +50, 48 hours
# MDA-MB-435 = experiment: NCI cancer screening program, SRB: MDA-MB-435; type: cell-based; conditions: Breast Cancer
# MDA-N = experiment: NCI cancer screening program, SRB: MDA-N; type: cell-based; conditions: Breast Cancer, PG +50, 48 hours
# BT-549 = experiment: NCI cancer screening program, SRB: BT-549; type: cell-based; conditions: Breast Cancer, PG +50, 48 hours
# T-47D = experiment: NCI cancer screening program, SRB: T-47D; type: cell-based; conditions: Breast Cancer, PG +50, 48 hours
# [1] = test system: KB nasopharyngeal carcinoma cell line; experiment: In vitro cytotoxicity, methylene blue assay / cell count: KB; type: cell-based; conditions: three generations, mean ± standard deviation of five experiments, read-out: ID50 (the source's name)
# [2] = test system: DU-145 prostate carcinoma line; experiment: In vitro cytotoxicity, methylene blue assay / cell count: DU-145; type: cell-based; conditions: Homo sapiens, read-out: ID50 (the source's name)
# [3] = test system: PC-3 prostate carcinoma line; experiment: In vitro cytotoxicity, methylene blue assay / cell count: PC-3; type: cell-based; conditions: three generations, mean ± standard deviation of five experiments, read-out: ID50 (the source's name)
# CEM cells = experiment: In vitro cytotoxicity, methylene blue assay / cell count: CEM; type: cell-based; conditions: Homo sapiens, CCRF-CEM, three generations, mean ± standard deviation of five experiments, read-out: ID50 (the source's name)
# tumor cell lines tested = experiment: In vitro cytotoxicity, statement on all tumor cell lines tested; type: cell-based; conditions: all of the tumor cell lines tested
# HepG2 tumors = experiment: HepG2 xenograft in NCr nude mice; type: in vivo, human; conditions: for Effect on HepG2 tumors in words: 25 mg/kg twice a day on days 0 through 4, NCr nude mice; for Net cell kill (log 10): HepG2 tumors, 25 mg/kg twice a day days 0 through 4
# Protocol: (§1) FIG. 5 is a graph of the inhibition of human tumor growth by […]. Three to six week old NCr nude mice were inoculated subcutaneously in each flank with 2×10^6 HepG2 or DU-145 cells. Treatment was started when the tumors were in an advanced stage of growth. Drugs were administered twice a day on days 0 through 4 and tumor sizes were measured on the indicated days. […] Each data point represents the means±SD of 10 tumors in graph A and six tumors in graph B.
# (§2) Three to six-week-old NCr nude mice (Taconic Immunodeficient Mice and Rats) were inoculated s.c. in each flank with 2×10^6HepG2 or DU-145 cells and tumors were allowed to grow. Treatment was started when the tumors were 100-250mg as determined by caliper measurement and calculated according to the formula:
# (§3) Tumor Weight(mg)=length(mm)×width(mm^2)÷2
# (§4) Drugs were given at the indicated doses on days 0 through 4 and tumor sizes were measured every several days. The tumor growth curves were generated as described in Bell, et al., Cancer(phila.) 36:2437-2440 (1975), and are illustrated in FIGS. 5(a) and 5(b).
# DU-145 tumors = experiment: DU-145 xenograft in NCr nude mice; type: in vivo, human
# Protocol: as §1, §2, §3, §4
# NCr nude mice = type: in vivo
# Protocol: as §4
# Toxicity was evaluated by changes in body weight.
# [4] = target: human deoxycytidine kinase (Homo sapiens, UniProt P27707); experiment: In vitro enzymatic studies of phosphorylation; type: biochemical
# [5] = Phosphorylation to nucleotides in vivo
# BKVX = conditions: Non-Small Cell Lung Cancer, PG +50, 48 hours
# Description: (§5) GI50, TGI and LC50 are values representing the concentrations at which the PG (percent of growth inhibition), defined below, is +50, 0, and −50, respectively.
# (§6) If (Mean ODtest−Mean ODtzero)≧0. then PG=100×(Mean ODtest−Mean ODtzero)/(Mean ODctrl−Mean ODtzero)
# (§7) If (Mean ODtest−Mean ODtzero)<0. then PG=100×(Mean ODtest−Mean ODtzero)/(Mean ODtzero)
# (§8) Mean ODtzero=The average of optical density measurements of SRB-derived color just before exposure of cells to the test compound.
# (§9) Mean ODtestThe average of optical density measurements of SRB-derived color after 48 hours exposure of cells to the test compound.
# (§10) Mean ODctrl=The average of optical density measurements of SRB-derived color after 48 hours with no exposure of cells to the test compound.
# (§11) If these response parameters could not be obtained by interpolation, the value given for each response parameter is the highest concentration tested and is preceded by a “>” sign.
# K2112 = conditions: Colon Cancer
# Description: as §5, §6, §7, §8, §9, §10, §11
# SP-268 = conditions: CNS Cancer, PG +50, 48 hours
# Description: as §5, §6, §7, §8, §9, §10, §11
# SP-295 = conditions: CNS Cancer, PG +50, 48 hours
# Description: as §5, §6, §7, §8, §9, §10, §11
# 785-4 = conditions: Renal Cancer, PG +50, 48 hours
# Description: as §5, §6, §7, §8, §9, §10, §11
# TK-30 = conditions: Renal Cancer
# Description: as §5, §6, §7, §8, §9, §10, §11
# MDA-MB-231/ATCC = conditions: Breast Cancer, PG +50, 48 hours
# Description: as §5, §6, §7, §8, §9, §10, §11
# cytidine deaminase = cytidine deaminase (Homo sapiens, UniProt P32320); experiment: Enzymatic studies of deamination
# A549/ATCC = experiment: NCI cancer screening program, SRB: A549/ATCC; conditions: Non-Small Cell Lung Cancer, PG +50, 48 hours
# Description: as §5, §6, §7, §8, §9, §10, §11
# Chain of cytidine deaminase (P32320 whole entry, species assumed): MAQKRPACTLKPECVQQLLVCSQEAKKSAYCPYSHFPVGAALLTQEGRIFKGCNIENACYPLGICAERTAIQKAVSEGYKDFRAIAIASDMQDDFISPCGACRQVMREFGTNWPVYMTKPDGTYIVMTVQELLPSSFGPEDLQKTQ
# Chain of human deoxycytidine kinase (P27707 whole entry): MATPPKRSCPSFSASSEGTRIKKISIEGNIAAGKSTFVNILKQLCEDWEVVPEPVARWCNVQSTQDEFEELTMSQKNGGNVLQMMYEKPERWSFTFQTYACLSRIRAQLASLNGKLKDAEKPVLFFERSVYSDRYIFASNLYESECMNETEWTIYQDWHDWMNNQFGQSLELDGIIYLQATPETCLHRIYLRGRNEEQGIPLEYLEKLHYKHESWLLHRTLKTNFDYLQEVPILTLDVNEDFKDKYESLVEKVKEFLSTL
structure (smiles),measurement,setting,value
"Nc1ccn([C@@H]2CO[C@H](CO)O2)c(=O)n1 [(−)-OddC, (−)-(2S,4S)-1-(2-hydroxymethyl-1,3-dioxolan-4-yl)cytosine]",LOG10GI50,SN12C,−6.27
same,LOG10GI50,UO-31,−5.60
same,LOG10GI50,PC-3,−6.29
same,LOG10GI50,DU-145,−6.97
same,LOG10GI50,MCF7,−5.95
same,LOG10TGI,"MCF7/ADR-RES; PG 0, 48 hours",>−4.00
same,LOG10GI50,"MCF7/ADR-RES; PG +50, 48 hours",−4.97
same,LOG10GI50,HS578T,>−4.00
same,LOG10TGI,"MDA-MB-435; PG 0, 48 hours",>−4.00
same,LOG10GI50,"MDA-MB-435; PG +50, 48 hours",−4.62
same,LOG10GI50,MDA-N,−4.33
same,LOG10GI50,BT-549,−4.59
same,LOG10GI50,T-47D,>−4.00
same,IC50,[1],48 ± 21 nM
same,IC50,[2],24 ± 20 nM
same,IC50,[3],56 ± 39 nM
same,IC50,CEM cells,25 ± 30 nM
same,Cytotoxicity in words,tumor cell lines tested,more cytotoxic than AraC
same,Effect on HepG2 tumors in words,HepG2 tumors,active
same,Effect on HepG2 tumors in words,HepG2 tumors; listed as (L)-OddC,effective
same,Net cell kill (log 10),HepG2 tumors; i.p. treatment,0.67
same,Net cell kill (log 10),HepG2 tumors; oral treatment,0.87
same,Effect on DU-145 tumors in words,"DU-145 tumors; 25 mg/kg twice a day on days 0 through 4, NCr nude mice",effective
same,DU-145 tumors regressing completely,DU-145 tumors; by day 15,half of them regressing completely
same,Toxicity as indicated by weight loss of the animals,"NCr nude mice; doses given, 25 mg/kg twice a day days 0 through 4",equally toxic
same,Maximum tolerated dosage,"NCr nude mice; twice a day for five continuous days of treatment, preliminary toxicity experiments",25 mg/kg
same,Phosphorylation by human deoxycytidine kinase,[4],can be phosphorylated
same,Phosphorylation in vivo,[5],"can be phosphorylated to mono-, di- and tri-phosphate nucleotide"
same,Log10GI50,BKVX,>−4.00
same,Log10TGI,"K2112; PG 0, 48 hours",>−4.00
same,Log10GI50,"K2112; PG +50, 48 hours",>−4.00
same,Log10GI50,SP-268,−5.18
same,Log10GI50,SP-295,−6.24
same,LOG10GI50,785-4,−5.36
same,LOG10TGI,"TK-30; PG 0, 48 hours",>−4.00
same,LOG10GI50,"TK-30; PG +50, 48 hours",>−4.00
same,LOG10GI50,MDA-MB-231/ATCC,>−4.00
same,Substrate for deaminase / deamination by cytidine deaminase,cytidine deaminase,not a substrate; also recorded: not deaminated
same,Log10GI50,A549/ATCC,−6.01
